Experimental data: patent publication US10364247B2, “Preparation and use of novel protein kinase inhibitors” (Ruijin Hospital Affiliated to Shanghai Jiao Tong University …, priority 2015, dated 2019)

Columns and labels:
Assay in all cases: KINOMEscan competition binding
TRKB = molecular target: T1, TRKB (Homo sapiens, UniProt Q16620); details: TRKB (Entrez NTRK2), read-out: Percent Control
T1 construct: purchased KINOMEscan (screening service)
Method: (§1) KINOMEscan™ is based on a competition binding assay that quantitatively measures the ability of a compound to compete with an immobilized, active-site directed ligand (Fabian et al. (2005) Nat. Biotechnol. 23, 329; Karaman et al. (2008) Nat. Biotechnol. 26, 127). The compound was screened at 10 μM, and results for primary screen binding interactions are reported as ‘% Ctrl’, where lower numbers indicate stronger hits. The results for kinases targets with a % Ctrl less than 30 can be seen in Table 2.

EPHA7 = EPHA7 (Homo sapiens, UniProt Q15375); details: read-out: Percent Control
Method: as §1

EGFR(L747-T751del, Sins) = details: 10 μM
Method: as §1

EPHA5 = EPHA5 (Homo sapiens, UniProt P54756); details: read-out: Percent Control
Sequence of EPHA5 (P54756 25-1037): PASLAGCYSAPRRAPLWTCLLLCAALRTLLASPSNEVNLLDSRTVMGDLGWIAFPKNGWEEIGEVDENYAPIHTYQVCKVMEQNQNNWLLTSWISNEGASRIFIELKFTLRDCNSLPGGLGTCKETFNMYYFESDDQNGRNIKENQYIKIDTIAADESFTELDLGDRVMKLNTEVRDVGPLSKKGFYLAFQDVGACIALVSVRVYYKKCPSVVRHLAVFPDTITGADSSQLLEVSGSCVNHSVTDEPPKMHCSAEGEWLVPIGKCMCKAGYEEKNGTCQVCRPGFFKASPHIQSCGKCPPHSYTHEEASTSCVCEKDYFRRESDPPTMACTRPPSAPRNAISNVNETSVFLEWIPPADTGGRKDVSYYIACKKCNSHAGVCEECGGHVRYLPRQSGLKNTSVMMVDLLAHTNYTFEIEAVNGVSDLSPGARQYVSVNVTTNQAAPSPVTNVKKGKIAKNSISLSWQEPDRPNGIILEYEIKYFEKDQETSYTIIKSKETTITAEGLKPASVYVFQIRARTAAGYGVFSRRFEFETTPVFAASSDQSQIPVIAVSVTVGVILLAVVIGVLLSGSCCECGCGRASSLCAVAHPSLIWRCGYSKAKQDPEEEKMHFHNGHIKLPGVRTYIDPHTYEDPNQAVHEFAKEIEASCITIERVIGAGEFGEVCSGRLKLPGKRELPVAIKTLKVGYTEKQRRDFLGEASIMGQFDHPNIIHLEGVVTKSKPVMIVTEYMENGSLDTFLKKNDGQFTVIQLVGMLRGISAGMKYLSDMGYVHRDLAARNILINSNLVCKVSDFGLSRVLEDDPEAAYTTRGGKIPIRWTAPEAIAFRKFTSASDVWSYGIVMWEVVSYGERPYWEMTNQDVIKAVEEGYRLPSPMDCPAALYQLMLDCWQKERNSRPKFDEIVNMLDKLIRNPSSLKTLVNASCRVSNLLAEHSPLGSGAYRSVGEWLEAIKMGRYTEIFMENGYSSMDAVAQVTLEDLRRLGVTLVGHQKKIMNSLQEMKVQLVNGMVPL
Method: as §1

EPHB4 = EPHB4 (Homo sapiens, UniProt P54760); details: read-out: Percent Control
Method: as §1

CIT = molecular target: T2, CIT (Homo sapiens, UniProt O14578); details: read-out: Percent Control
T2 construct: purchased KINOMEscan (panel service)
Method: as §1

[1] = molecular target: T3, ABL1(Y253F)-phosphorylated (Homo sapiens, UniProt P00519, Y253F); details: read-out: Percent Control
T3 construct: purchased KINOMEscan (panel service)
Method: as §1

EGFR = molecular target: T4, EGFR (Homo sapiens, UniProt P00533); details: read-out: Percent Control
T4 construct: purchased KINOMEscan (panel service)
Method: as §1

EGFR(S752-I759del) = EGFR(S752-I759del) (Homo sapiens, UniProt P00533, DEL752-759); details: read-out: Percent Control
Method: as §1

MAP4K4 = MAP4K4 (Homo sapiens, UniProt O95819); details: read-out: Percent Control
Method: as §1

[2] = molecular target: T5, RSK4(Kin.Dom.2-C-terminal) (Homo sapiens, UniProt Q9UK32); details: RSK4(Kin.Dom.2-C-terminal) (Entrez RPS6KA6), read-out: Percent Control
T5 construct: RSK4(Kin.Dom.2-C-terminal)
Method: as §1

CSK = CSK (Homo sapiens, UniProt P41240); details: read-out: Percent Control
Method: as §1

GAK = molecular target: T6, GAK (Homo sapiens, UniProt O14976); details: read-out: Percent Control
T6 construct: purchased KINOMEscan (screening service)
T6 sequence (O14976 whole entry): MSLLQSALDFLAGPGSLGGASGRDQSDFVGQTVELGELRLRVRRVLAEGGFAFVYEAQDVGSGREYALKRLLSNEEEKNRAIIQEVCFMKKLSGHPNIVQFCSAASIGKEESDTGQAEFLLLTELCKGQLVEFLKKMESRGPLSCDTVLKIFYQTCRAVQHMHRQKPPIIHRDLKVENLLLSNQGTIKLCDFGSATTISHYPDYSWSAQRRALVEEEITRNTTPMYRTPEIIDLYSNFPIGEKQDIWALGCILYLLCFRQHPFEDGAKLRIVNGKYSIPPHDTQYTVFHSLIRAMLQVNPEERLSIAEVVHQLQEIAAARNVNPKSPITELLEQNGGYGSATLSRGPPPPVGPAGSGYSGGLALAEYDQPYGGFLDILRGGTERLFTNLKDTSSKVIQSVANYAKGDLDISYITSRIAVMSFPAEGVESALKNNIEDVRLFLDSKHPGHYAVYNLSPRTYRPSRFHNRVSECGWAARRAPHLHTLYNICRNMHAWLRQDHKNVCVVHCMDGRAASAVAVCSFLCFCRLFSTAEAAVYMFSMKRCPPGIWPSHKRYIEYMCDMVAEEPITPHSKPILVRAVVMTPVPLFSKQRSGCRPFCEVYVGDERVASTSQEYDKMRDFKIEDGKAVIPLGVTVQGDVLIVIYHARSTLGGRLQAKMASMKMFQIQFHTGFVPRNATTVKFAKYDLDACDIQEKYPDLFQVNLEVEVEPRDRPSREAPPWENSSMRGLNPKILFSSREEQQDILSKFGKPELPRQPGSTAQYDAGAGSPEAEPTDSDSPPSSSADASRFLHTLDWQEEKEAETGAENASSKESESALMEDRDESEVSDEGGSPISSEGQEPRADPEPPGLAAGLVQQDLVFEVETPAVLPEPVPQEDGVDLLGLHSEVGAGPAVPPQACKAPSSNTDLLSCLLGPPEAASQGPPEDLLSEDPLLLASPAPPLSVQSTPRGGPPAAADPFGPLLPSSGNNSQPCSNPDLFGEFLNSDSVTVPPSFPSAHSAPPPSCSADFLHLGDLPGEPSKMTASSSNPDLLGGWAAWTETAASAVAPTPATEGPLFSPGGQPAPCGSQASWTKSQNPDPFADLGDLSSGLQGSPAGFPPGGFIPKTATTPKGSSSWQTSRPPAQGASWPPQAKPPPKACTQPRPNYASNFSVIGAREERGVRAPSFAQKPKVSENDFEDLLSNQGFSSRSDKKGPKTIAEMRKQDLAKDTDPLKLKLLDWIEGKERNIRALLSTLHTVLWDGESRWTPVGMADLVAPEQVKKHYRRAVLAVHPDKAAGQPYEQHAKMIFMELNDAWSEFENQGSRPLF
Method: as §1

FGFR4 = molecular target: T7, FGFR4 (Homo sapiens, UniProt P22455); details: read-out: Percent Control
T7 construct: purchased KINOMEscan (screening platform)
Method: as §1

MUSK = MUSK (Homo sapiens, UniProt O15146); details: read-out: Percent Control
Method: as §1

CDC2L1 = molecular target: T8, CDC2L1 (Homo sapiens, UniProt P21127); details: CDC2L1 (Entrez CDK11B), read-out: Percent Control
T8 construct: purchased KINOMEscan (screening service)
Method: as §1

YES = molecular target: T9, YES (Homo sapiens, UniProt P07947); details: YES (Entrez YES1), read-out: Percent Control
T9 construct: purchased KINOMEscan (panel service)
Method: as §1

GCN2(Kin.Dom.2, S808G) = molecular target: T10, GCN2(Kin.Dom.2, S808G) (Homo sapiens, UniProt Q9P2K8, S808G); details: GCN2(Kin.Dom.2, S808G) (Entrez EIF2AK4), read-out: Percent Control
T10 construct: GCN2(Kin.Dom.2, S808G)
Method: as §1

MERTK = molecular target: T11, MERTK (Homo sapiens, UniProt Q12866); details: read-out: Percent Control
T11 construct: purchased KINOMEscan (screening service)
Method: as §1

MAP3K2 = MAP3K2 (Homo sapiens, UniProt Q9Y2U5); details: read-out: Percent Control
Method: as §1

BLK = BLK (Homo sapiens, UniProt P51451); details: read-out: Percent Control
Method: as §1

EGFR(L858R, T790M) = molecular target: T12, EGFR(L858R, T790M) (Homo sapiens, UniProt P00533, L858R/T790M); details: read-out: Percent Control
T12 construct: purchased KINOMEscan (screening platform)
Method: as §1

TRKC = molecular target: T13, TRKC (Homo sapiens, UniProt Q16288); details: TRKC (Entrez NTRK3), read-out: Percent Control
T13 construct: purchased KINOMEscan (screening service)
Method: as §1

MEK4 = MEK4 (Homo sapiens, UniProt P45985); details: MEK4 (Entrez MAP2K4), read-out: Percent Control
Method: as §1

PRKCQ = molecular target: T14, PRKCQ (Homo sapiens, UniProt Q04759); details: read-out: Percent Control
T14 construct: purchased KINOMEscan (screening platform)
Method: as §1

TIE2 = TIE2 (Homo sapiens, UniProt Q02763); details: TIE2 (Entrez TEK)
Sequence of TIE2 (Q02763 23-1124): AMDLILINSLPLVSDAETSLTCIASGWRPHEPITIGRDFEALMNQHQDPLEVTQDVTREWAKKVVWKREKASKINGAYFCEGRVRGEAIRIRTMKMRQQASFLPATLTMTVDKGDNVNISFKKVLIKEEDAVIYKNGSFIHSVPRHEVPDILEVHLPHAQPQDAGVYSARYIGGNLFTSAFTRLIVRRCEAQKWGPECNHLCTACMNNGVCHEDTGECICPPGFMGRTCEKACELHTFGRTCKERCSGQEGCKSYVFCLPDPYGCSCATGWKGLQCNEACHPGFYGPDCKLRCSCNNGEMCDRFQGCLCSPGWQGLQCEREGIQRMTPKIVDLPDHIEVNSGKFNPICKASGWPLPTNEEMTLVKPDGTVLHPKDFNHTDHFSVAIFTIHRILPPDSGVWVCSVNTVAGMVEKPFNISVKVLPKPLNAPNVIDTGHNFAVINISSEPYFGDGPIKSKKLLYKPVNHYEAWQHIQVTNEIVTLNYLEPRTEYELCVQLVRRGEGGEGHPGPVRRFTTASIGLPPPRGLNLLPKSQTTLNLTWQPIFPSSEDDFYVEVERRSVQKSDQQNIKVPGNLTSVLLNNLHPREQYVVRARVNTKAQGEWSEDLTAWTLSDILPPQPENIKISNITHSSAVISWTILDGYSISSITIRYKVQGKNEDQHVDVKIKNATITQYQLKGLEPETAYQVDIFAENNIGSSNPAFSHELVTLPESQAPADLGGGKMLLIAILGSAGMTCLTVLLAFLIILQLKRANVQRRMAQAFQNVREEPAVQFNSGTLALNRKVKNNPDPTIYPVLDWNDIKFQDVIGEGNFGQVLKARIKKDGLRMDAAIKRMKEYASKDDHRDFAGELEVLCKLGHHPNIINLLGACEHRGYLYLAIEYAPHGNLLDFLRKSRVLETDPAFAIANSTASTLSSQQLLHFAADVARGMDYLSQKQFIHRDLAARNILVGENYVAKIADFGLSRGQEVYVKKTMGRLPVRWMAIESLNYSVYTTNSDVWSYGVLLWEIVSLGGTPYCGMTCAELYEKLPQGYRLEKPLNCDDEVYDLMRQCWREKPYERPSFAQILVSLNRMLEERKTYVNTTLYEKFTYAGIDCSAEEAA
Method: as §1

FLT4 = FLT4 (Homo sapiens, UniProt P35916); details: read-out: Percent Control
Method: as §1

EPHA2 = EPHA2 (Homo sapiens, UniProt P29317); details: read-out: Percent Control
Method: as §1

[3] = molecular target: ABL1(M351T)-phosphorylated (Homo sapiens, UniProt P00519, M351T); details: read-out: Percent Control
Method: as §1

TAOK2 = molecular target: T15, TAOK2 (Homo sapiens, UniProt Q9UL54); details: read-out: Percent Control
T15 construct: purchased KINOMEscan (screening service)
Method: as §1

MINK = MINK (Homo sapiens, UniProt Q8N4C8); details: MINK (Entrez MINK1), read-out: Percent Control
Method: as §1

LTK = molecular target: T16, LTK (Homo sapiens, UniProt P29376); details: read-out: Percent Control
T16 construct: purchased KINOMEscan (screening platform)
T16 sequence (P29376 17-864): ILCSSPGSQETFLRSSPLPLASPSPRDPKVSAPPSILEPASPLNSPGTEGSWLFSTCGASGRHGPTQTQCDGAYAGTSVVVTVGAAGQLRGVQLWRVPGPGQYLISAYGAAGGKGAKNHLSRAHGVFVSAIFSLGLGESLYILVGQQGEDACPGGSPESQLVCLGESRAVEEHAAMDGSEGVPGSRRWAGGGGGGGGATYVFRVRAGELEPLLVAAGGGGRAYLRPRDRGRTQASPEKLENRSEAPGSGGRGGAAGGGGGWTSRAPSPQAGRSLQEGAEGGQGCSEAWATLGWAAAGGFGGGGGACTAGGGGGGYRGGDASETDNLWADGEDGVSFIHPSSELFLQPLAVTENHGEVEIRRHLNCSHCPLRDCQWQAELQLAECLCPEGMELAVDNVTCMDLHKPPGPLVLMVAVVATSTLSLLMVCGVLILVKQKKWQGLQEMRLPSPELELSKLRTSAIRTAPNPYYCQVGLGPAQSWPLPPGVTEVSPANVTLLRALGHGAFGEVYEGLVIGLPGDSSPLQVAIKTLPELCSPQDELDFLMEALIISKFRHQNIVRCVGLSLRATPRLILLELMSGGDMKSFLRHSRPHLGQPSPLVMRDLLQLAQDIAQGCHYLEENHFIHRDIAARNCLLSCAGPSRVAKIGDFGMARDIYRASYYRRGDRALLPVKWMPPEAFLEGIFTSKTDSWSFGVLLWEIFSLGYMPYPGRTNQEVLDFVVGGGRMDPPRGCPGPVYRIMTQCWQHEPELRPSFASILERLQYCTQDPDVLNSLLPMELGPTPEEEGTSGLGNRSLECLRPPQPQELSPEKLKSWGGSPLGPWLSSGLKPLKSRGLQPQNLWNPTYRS
Method: as §1

ROS1 = molecular target: T17, ROS1 (Homo sapiens, UniProt P08922); details: read-out: Percent Control
T17 construct: purchased KINOMEscan (screening service)
Method: as §1

TXK = molecular target: T18, TXK (Homo sapiens, UniProt P42681); details: read-out: Percent Control
T18 construct: purchased KINOMEscan (panel service)
Method: as §1

MEK5 = MEK5 (Homo sapiens, UniProt Q13163); details: MEK5 (Entrez MAP2K5), read-out: Percent Control
Method: as §1

T1 sequence (Q16620 32-822): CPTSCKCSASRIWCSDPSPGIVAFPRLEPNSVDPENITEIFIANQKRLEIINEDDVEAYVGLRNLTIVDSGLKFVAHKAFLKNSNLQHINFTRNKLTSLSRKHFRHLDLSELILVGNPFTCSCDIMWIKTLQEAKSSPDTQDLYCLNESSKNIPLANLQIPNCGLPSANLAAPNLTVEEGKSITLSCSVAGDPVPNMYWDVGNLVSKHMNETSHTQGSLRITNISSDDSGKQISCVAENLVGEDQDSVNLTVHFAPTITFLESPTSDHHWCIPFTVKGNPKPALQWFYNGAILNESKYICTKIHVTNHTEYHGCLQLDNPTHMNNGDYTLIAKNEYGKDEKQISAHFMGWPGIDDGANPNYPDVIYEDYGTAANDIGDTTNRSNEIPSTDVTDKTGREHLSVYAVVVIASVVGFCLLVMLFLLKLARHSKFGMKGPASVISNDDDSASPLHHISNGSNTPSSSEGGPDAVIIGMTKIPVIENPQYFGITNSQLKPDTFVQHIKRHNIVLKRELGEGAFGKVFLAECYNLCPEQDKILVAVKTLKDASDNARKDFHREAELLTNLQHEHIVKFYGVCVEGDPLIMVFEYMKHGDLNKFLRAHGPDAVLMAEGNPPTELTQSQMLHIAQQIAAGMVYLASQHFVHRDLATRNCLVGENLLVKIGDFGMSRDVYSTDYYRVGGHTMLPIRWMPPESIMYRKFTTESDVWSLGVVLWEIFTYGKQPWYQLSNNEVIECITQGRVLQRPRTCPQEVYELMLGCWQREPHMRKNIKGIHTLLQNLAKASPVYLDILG

Question: `Cc1ccc(Nc2ncc3c(n2)N(C)CN(c2cc(NC(=O)c4cccc(C(F)(F)F)c4)ccc2C)C3)cn1` [IA-9, N-(4-methyl-3-(1-methyl-7-((6-methylpyridin-3-yl)amino)-1,4-dihydropyrimido[4,5-d]pyrimidin-3(2H)-yl)phenyl)-3-(trifluoromethyl)benzamide] was tested. Which remaining binding at 10 µM (TRKB) did it give?
Answer: 10%

Question: And the remaining binding at 10 µM (EPHA7)?
Answer: 0.55%

Question: And the “Percent Control” value (EGFR(L747-T751del, Sins))?
Answer: 0.4 % Ctrl

Question: And the remaining binding at 10 µM (EPHA5)?
Answer: 0.9%

Question: And the remaining binding at 10 µM (EPHB4)?
Answer: 0%

Question: And the remaining binding at 10 µM (CIT)?
Answer: 0.1%

Question: What about the remaining binding at 10 µM [1] of the same compound?
Answer: 0.15%

Question: And the remaining binding at 10 µM (EGFR)?
Answer: 0.05%

Question: And the remaining binding at 10 µM (EGFR(S752-I759del))?
Answer: 0%

Question: And the remaining binding at 10 µM (MAP4K4)?
Answer: 0.6%

Question: And the remaining binding at 10 µM [2]?
Answer: 2.6%

Question: What about the remaining binding at 10 µM (CSK) of the same compound?
Answer: 0.9%

Question: And the remaining binding at 10 µM (GAK)?
Answer: 7.4%

Question: What about the remaining binding at 10 µM (FGFR4) of the same compound?
Answer: 25%

Question: And the remaining binding at 10 µM (MUSK)?
Answer: 6.8%

Question: And the remaining binding at 10 µM (CDC2L1)?
Answer: 15%

Question: And the remaining binding at 10 µM (YES)?
Answer: 0.05%

Question: And the remaining binding at 10 µM (GCN2(Kin.Dom.2, S808G))?
Answer: 1.3%

Question: What about the remaining binding at 10 µM (MERTK) of the same compound?
Answer: 7%

Question: What about the remaining binding at 10 µM (MAP3K2) of the same compound?
Answer: 5%

Question: What about the remaining binding at 10 µM (BLK) of the same compound?
Answer: 0.3%

Question: And the remaining binding at 10 µM (EGFR(L858R, T790M))?
Answer: 24%

Question: What about the remaining binding at 10 µM (TRKC) of the same compound?
Answer: 7.2%

Question: What about the remaining binding at 10 µM (MEK4) of the same compound?
Answer: 2%

Question: And the remaining binding at 10 µM (PRKCQ)?
Answer: 25%

Question: What about the percent of control binding at 10 µM (TIE2) of the same compound?
Answer: 0.45%

Question: What about the remaining binding at 10 µM (FLT4) of the same compound?
Answer: 0%

Question: What about the remaining binding at 10 µM (EPHA2) of the same compound?
Answer: 0.2%

Question: And the remaining binding at 10 µM [3]?
Answer: 1.2%

Question: And the remaining binding at 10 µM (TAOK2)?
Answer: 15%

Question: And the remaining binding at 10 µM (MINK)?
Answer: 3.6%

Question: And the remaining binding at 10 µM (LTK)?
Answer: 22%

Question: And the remaining binding at 10 µM (ROS1)?
Answer: 17%

Question: And the remaining binding at 10 µM (TXK)?
Answer: 0%

Question: And the remaining binding at 10 µM (MEK5)?
Answer: 0.3%
